From patent publication US20130158041A1, “Tyrosine Kinase Inhibitors” (priority 2010, published 2013)

system: HGF-dependent scattering phenotype of HPAF-II cells; test: HPAF scatter assay; type: cell-based; conditions: Homo sapiens, 4 ng/ml HGF, 22 hrs, read-out: inhibitory activity (IC50), scattering phenotype
Procedure: The ability of compounds to inhibit the HGF-dependent scattering phenotype of HPAF-II cells was measured using a modified version of the assay described by Chan et al. 2008 (Chan et al. J. Biomolec. Screening 2008; 13:847-854). Briefly, HPAF-II cells (ATCC #CRL1997) were plated in 50 uL DMEM (#11995)+10% FBS+P/S at a density of 3,000 cells/well in Costar black clear bottom 384-well plates [Product no. 3712] and incubated at 37° C. overnight. The next day, […] of serially diluted compound in DMSO was added to each well in the cell plate to give a nine-point 1:3 dilution series with final concentrations ranging from 20 uM to 3 nM. Cells were preincubated with compound at 37° C. for one hour. To stimulate the scattering phenotype, 10 uL of 24 ng/ml HGF (R&D Systems 294-HGN) was next added to each well, giving a final concentration of 4 ng/ml HGF. Cells were incubated with both compound and HGF at 37° C. for an additional 22 hrs. Control […] wells without compound treatment and control wells without HGF or compound were included on each plate. Next, to visualize the cells, each plate was washed in PBS 1×, fixed in ice cold methanol for 3 min at RT, washed in PBS 3×, stained with Hoechst (1:2500) in PBS/0.1% Triton for 15 min in the dark, and finally washed in PBS 4× before imaging on an INCell Analyzer 1000 (GE Healthcare). Individual cell by cell SOI internuclear distance information was exported and then processed using a Pipeline Pilot (Accelrys) protocol to calculate the percentage of scattered cells. The percent inhibition of the scattering phenotype was calculated relative to cells without compound treatment, plotted against the log of compound concentration and then fit to a four parameter logistic fit to obtain IC50 values.

IC50, 15 to 550 nM:
COCCOC(=O)Nc1cccc(Cc2nn(-c3cnn(C)c3)ccc2=S)c1 [Example 8, 2-methoxyethyl (3-{[1-(1-methyl-1H-pyrazol-4-yl)-4-thioxo-1,4-dihydropyridazin-3-yl]methyl}phenyl)carbamate]
CCOc1cnc2ccc(OCc3nn(-c4cnn(C)c4)ccc3=S)cc2c1 [Example 19, 3-{[(3-Ethoxyquinolin-6-yl)oxy]methyl}-1-(1-methyl-1H-pyrazol-4-yl)pyridazin-4(1H)-thione]
COCCOc1cnc(-c2cccc(Cc3nn(-c4cnn(C)c4)ccc3=S)c2)nc1 [Example 3, 3-{3-[5-(2-methoxyethoxy)pyrimidin-2-yl]benzyl}-1-(1-methyl-1H-pyrazol-4-yl)pyridazin-4(1H)-thione]
Cn1cc(-c2cnc3ccc(OCc4nn(-c5cnn(C)c5)ccc4=S)cc3c2)cn1 [Example 21, 1-(1-methyl-1H-pyrazol-4-yl)-3-({[3-(1-methyl-1H-pyrazol-4-yl)quinolin-6-yl]oxy}methyl)pyridazin-4(1H)-thione]
CCCn1cnc(-c2cccc(Cc3nn(-c4cnn(CC)c4)ccc3=S)c2)n1 [Example 5, 1-(1-ethyl-1H-pyrazol-4-yl)-3-[3-(1-propyl-1H-1,2,4-triazol-3-yl)benzyl]pyridazin-4(1H)-thione]
